Literature values as cited in PMC9780888, “4-Isobutylmethcathinone—A Novel Synthetic Cathinone with High In Vitro Cytotoxicity and Strong Receptor Binding Preference of Enantiomers” (Pharmaceuticals, 2022).

Experiments:
SH-SY5Y cells = system: SH-SY5Y cells; parameters: method as in PMID 31473217; details: 24 h of exposure ref 20; cited from earlier work
[1] = system: DAR2-like family receptors vs DAR1-like family of receptors; details: cited from earlier work
HTR receptor = system: HTR receptor; parameters: method as in PMID 22897747; details: cited from earlier work
SERT = details: S- versus R-enantiomer, 13 in b3; cited from earlier work
[2] = system: neuronal differentiated SH-SY5Y cells; parameters: method as in PMID 25624004; details: 24-h exposure, ToxiLight BioAssay ref 30; cited from earlier work
HTR2A = system: HTR2A; parameters: method as in PMID 22897747; details: cited from earlier work

CNC(C)C(=O)c1ccc(C)c(C)c1 (stereo not drawn) [3,4-DMMC]
IC50 (SH-SY5Y cells): > 1000 µM

NCCc1ccc(O)c(O)c1 [DA, dopamine]
affinity of DAR2-like family receptors relative to DAR1-like family [1]: 10-100 fold

CCNC(C)Cc1ccc2c(c1)OCO2 (stereo not drawn) [MDEA, 3,4-methylenedioxy-N-ethylamphetamine]
HTR receptor binding activity (HTR receptor): has not been demonstrated

CNC(C)Cc1ccc2c(c1)OCO2 (stereo not drawn) [MDMA, 3,4-methylenedioxymethamphetamine]
HTR receptor binding activity (HTR receptor): has not been demonstrated

CN[C@@H](C)C(=O)c1ccc(C)cc1 [S-mephedrone]
potency as SERT releaser relative to R-mephedrone (SERT): 40 times

CCCC(C(=O)c1ccccc1)N1CCCC1 (stereo not drawn) [alpha-PVP]
reported value for mitochondrial dysfunction [2]: above 100 mM

CNC(C)C(=O)c1ccc(F)cc1 (stereo not drawn) [flephedrone]
HTR2A-binding activity (HTR2A): has been previously described

CNC(C)C(=O)c1ccc(C)cc1 (stereo not drawn) [mephedrone]
HTR2A-binding activity (HTR2A): has been previously described

CNC(C)C(=O)c1ccccc1 (stereo not drawn) [methcathinone]
HTR2A-binding activity (HTR2A): has been previously described
